# Assays:
# Assay in all cases: relative viability (nuclei count vs DMSO), 5 days (fraction); higher = more cells survive
# NCI-H3122 = tested on: NCI-H3122
# Summary of the method: (§1)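 One day after seeding in 1536-well plates, lung cancer cell lines were dosed by pin tool. Dosing was either single-drug or a fixed anchor-drug dose plus five library-drug doses (not always all listed) in √10 steps. After 5 days, nuclei were stained in one fix-and-stain step and counted on 4× images, and relative viability is the nuclei count of treated wells over that of vehicle wells, given as the median of duplicate plates.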
# NCI-H2405 = tested on: NCI-H2405
# Summary of the method: as §1
# NCI-H647 = tested on: NCI-H647
# Summary of the method: as §1
# PC-14 = tested on: PC-14
# Summary of the method: as §1
# HCC-15 = tested on: HCC-15
# Summary of the method: as §1
# NCI-H1793 = tested on: NCI-H1793
# Summary of the method: as §1
# EPLC-272H = tested on: EPLC-272H
# Summary of the method: as §1
# LOU-NH91 = tested on: LOU-NH91
# Summary of the method: as §1
# NCI-H322M = tested on: NCI-H322M
# Summary of the method: as §1
# H3255 = tested on: H3255
# Summary of the method: as §1
# NCI-H2023 = tested on: NCI-H2023
# Summary of the method: as §1
# COR-L23 = tested on: COR-L23
# Summary of the method: as §1
# NCI-H441 = tested on: NCI-H441
# Summary of the method: as §1
# 201T = tested on: 201T
# Summary of the method: as §1
# UMC-11 = tested on: UMC-11
# Summary of the method: as §1
# NCI-H520 = tested on: NCI-H520
# Summary of the method: as §1
# NCI-H2347 = tested on: NCI-H2347
# Summary of the method: as §1
# NCI-H1734 = tested on: NCI-H1734
# Summary of the method: as §1
# SW 900 = tested on: SW 900
# Summary of the method: as §1
# NCI-H1650 = tested on: NCI-H1650
# Summary of the method: as §1
# NCI-H2170 = tested on: NCI-H2170
# Summary of the method: as §1
compound,measurement,setting,value
COc1cc2nccc(Oc3ccc(NC(=O)Nc4cc(C)on4)c(Cl)c3)c2cc1OC [Tivozanib] + O=C(c1cc(Cc2n[nH]c(=O)c3ccccc23)ccc1F)N1CCN(C(=O)C2CC2)CC1 [Olaparib] (partner 8 µM),relative viability,NCI-H3122; first compound 0.005 µM,0.616
same,relative viability,NCI-H3122; first compound 0.01581 µM,0.641
same,relative viability,NCI-H3122; first compound 0.05 µM,0.768
same,relative viability,NCI-H3122; first compound 0.1581 µM,0.684
same,relative viability,NCI-H3122; first compound 0.5 µM,0.606
same,relative viability,NCI-H2405; first compound 0.005 µM,0.831
same,relative viability,NCI-H2405; first compound 0.01581 µM,0.95
same,relative viability,NCI-H2405; first compound 0.05 µM,0.916
same,relative viability,NCI-H2405; first compound 0.1581 µM,1.01
same,relative viability,NCI-H2405; first compound 0.5 µM,0.669
same,relative viability,NCI-H647; first compound 0.005 µM,0.505
same,relative viability,NCI-H647; first compound 0.01581 µM,0.529
same,relative viability,NCI-H647; first compound 0.05 µM,0.63
same,relative viability,NCI-H647; first compound 0.1581 µM,0.56
same,relative viability,NCI-H647; first compound 0.5 µM,0.437
same,relative viability,PC-14; first compound 0.005 µM,0.28
same,relative viability,PC-14; first compound 0.01581 µM,0.316
same,relative viability,PC-14; first compound 0.05 µM,0.262
same,relative viability,PC-14; first compound 0.1581 µM,0.376
same,relative viability,PC-14; first compound 0.5 µM,0.306
same,relative viability,HCC-15; first compound 0.005 µM,0.661
same,relative viability,HCC-15; first compound 0.01581 µM,0.709
same,relative viability,HCC-15; first compound 0.05 µM,0.755
same,relative viability,HCC-15; first compound 0.1581 µM,0.696
same,relative viability,HCC-15; first compound 0.5 µM,0.553
same,relative viability,NCI-H1793; first compound 0.005 µM,0.804
same,relative viability,NCI-H1793; first compound 0.01581 µM,0.971
same,relative viability,NCI-H1793; first compound 0.05 µM,1.03
same,relative viability,NCI-H1793; first compound 0.5 µM,0.879
same,relative viability,EPLC-272H; first compound 0.005 µM,0.63
same,relative viability,EPLC-272H; first compound 0.01581 µM,0.969
same,relative viability,EPLC-272H; first compound 0.05 µM,0.741
same,relative viability,EPLC-272H; first compound 0.1581 µM,0.783
same,relative viability,EPLC-272H; first compound 0.5 µM,0.659
same,relative viability,LOU-NH91; first compound 0.005 µM,0.894
same,relative viability,LOU-NH91; first compound 0.01581 µM,0.902
same,relative viability,LOU-NH91; first compound 0.05 µM,0.932
same,relative viability,LOU-NH91; first compound 0.1581 µM,0.891
same,relative viability,LOU-NH91; first compound 0.5 µM,0.871
same,relative viability,NCI-H322M; first compound 0.005 µM,0.656
same,relative viability,NCI-H322M; first compound 0.01581 µM,0.811
same,relative viability,NCI-H322M; first compound 0.05 µM,0.755
same,relative viability,NCI-H322M; first compound 0.1581 µM,0.72
same,relative viability,NCI-H322M; first compound 0.5 µM,0.714
same,relative viability,H3255; first compound 0.005 µM,0.544
same,relative viability,H3255; first compound 0.01581 µM,0.56
same,relative viability,H3255; first compound 0.05 µM,0.541
same,relative viability,H3255; first compound 0.1581 µM,0.602
same,relative viability,H3255; first compound 0.5 µM,0.513
same,relative viability,NCI-H2023; first compound 0.005 µM,0.469
same,relative viability,NCI-H2023; first compound 0.01581 µM,0.476
same,relative viability,NCI-H2023; first compound 0.05 µM,0.454
same,relative viability,NCI-H2023; first compound 0.1581 µM,0.481
same,relative viability,NCI-H2023; first compound 0.5 µM,0.454
same,relative viability,COR-L23; first compound 0.005 µM,0.324
same,relative viability,COR-L23; first compound 0.01581 µM,0.326
same,relative viability,COR-L23; first compound 0.05 µM,0.376
same,relative viability,COR-L23; first compound 0.1581 µM,0.363
same,relative viability,COR-L23; first compound 0.5 µM,0.298
same,relative viability,NCI-H441; first compound 0.005 µM,0.538
same,relative viability,NCI-H441; first compound 0.01581 µM,0.531
same,relative viability,NCI-H441; first compound 0.05 µM,0.525
same,relative viability,NCI-H441; first compound 0.1581 µM,0.432
same,relative viability,NCI-H441; first compound 0.5 µM,0.396
same,relative viability,201T; first compound 0.005 µM,0.826
same,relative viability,201T; first compound 0.01581 µM,0.853
same,relative viability,201T; first compound 0.05 µM,0.821
same,relative viability,201T; first compound 0.1581 µM,0.875
same,relative viability,201T; first compound 0.5 µM,0.868
same,relative viability,UMC-11; first compound 0.005 µM,0.373
same,relative viability,UMC-11; first compound 0.01581 µM,0.393
same,relative viability,UMC-11; first compound 0.05 µM,0.456
same,relative viability,UMC-11; first compound 0.1581 µM,0.33
same,relative viability,UMC-11; first compound 0.5 µM,0.415
same,relative viability,NCI-H520; first compound 0.005 µM,0.42
same,relative viability,NCI-H520; first compound 0.01581 µM,0.354
same,relative viability,NCI-H520; first compound 0.05 µM,0.334
same,relative viability,NCI-H520; first compound 0.1581 µM,0.315
same,relative viability,NCI-H520; first compound 0.5 µM,0.301
same,relative viability,NCI-H2347; first compound 0.005 µM,0.566
same,relative viability,NCI-H2347; first compound 0.01581 µM,0.65
same,relative viability,NCI-H2347; first compound 0.05 µM,0.608
same,relative viability,NCI-H2347; first compound 0.1581 µM,0.638
same,relative viability,NCI-H2347; first compound 0.5 µM,0.512
same,relative viability,NCI-H1734; first compound 0.005 µM,0.716
same,relative viability,NCI-H1734; first compound 0.01581 µM,0.6
same,relative viability,NCI-H1734; first compound 0.05 µM,0.743
same,relative viability,NCI-H1734; first compound 0.1581 µM,0.564
same,relative viability,NCI-H1734; first compound 0.5 µM,0.609
same,relative viability,SW 900; first compound 0.005 µM,0.779
same,relative viability,SW 900; first compound 0.01581 µM,0.817
same,relative viability,SW 900; first compound 0.05 µM,0.776
same,relative viability,SW 900; first compound 0.5 µM,0.855
same,relative viability,NCI-H1650; first compound 0.005 µM,0.714
same,relative viability,NCI-H1650; first compound 0.01581 µM,0.94
same,relative viability,NCI-H1650; first compound 0.05 µM,0.855
same,relative viability,NCI-H1650; first compound 0.1581 µM,0.837
same,relative viability,NCI-H1650; first compound 0.5 µM,0.863
same,relative viability,NCI-H2170; first compound 0.005 µM,0.484
same,relative viability,NCI-H2170; first compound 0.01581 µM,0.596
same,relative viability,NCI-H2170; first compound 0.05 µM,0.642
same,relative viability,NCI-H2170; first compound 0.5 µM,0.523
